Test results taken from EP1939186A1, “5-Fluorouracil derivatives and their use for the treatment of cancer” (Sulfidris S.r.l., priority 2006, dated 2008).

How the values were obtained:
Format in all cases: cell-based
[1] = test system: Cisplatin resistant human ovarian cancer cells; test: Toxicity assay (printed MTD assay) on resistant cells; details: various concentrations (1-1000 µM) for 24, 48 or 72 hours
Procedure: Cisplatin resistant human ovarian cancer cells were treated with compounds of example 1 and 4 in comparison with 5-FU at various concentrations (1-1000 µM) for 24, 48 or 72 hours. MTD assay was used for toxicity study.

[2] = test system: colon tumour cells HCT 116; test: MTT assay (cell viability by mitochondrial dehydrogenase) on colon tumour cells; details: in vitro, range of concentrations 1-100 µM
From the text: (§1) The compound described in example 4 has been tested in vitro on colon tumour cells HCT 116 and DLD 1. MTT assay was used for toxicity study (spectrophotometric measurement of cell viability by mitochondrial dehydrogenase).

colon tumour cells DLD 1 = test: as above; details: in vitro, range of concentrations 1-100 µM
From the text: as §1

| SMILES | biological activity in comparison with 5-FU [1] | inhibit growth of colon tumour cells [2] | inhibit growth of colon tumour cells (colon tumour cells DLD 1) |
| --- | --- | --- | --- |
| CS(=O)(=O)SCCC(=O)OCn1cc(F)c(=O)[nH]c1=O [Example 1, (5-fluoro-2,4-dioxo-3,4-dihydropyrimidin-1(2H)-yl)methyl 3-(methylsulfonylthio)propanoate] | superior to 5-FU | – | – |
| CS(=O)(=O)SCCOC(=O)CNC(=O)n1cc(F)c(=O)[nH]c1=O [Example 4, 2-(methylsulfonylthio)ethyl 2-(5-fluoro-2,4-dioxo-1,2,3,4-tetrahydropyrimidine-1-carboxamido)acetate] | superior to 5-FU | potently inhibit growth | potently inhibit growth |
